What was measured:
[1] = cited from earlier work
[2] = test system: Spontaneously hypertensive male rats; test: Antihypertensive activity in spontaneously hypertensive rats (oral, 10 successive days); format: in vivo, rat; conditions: 10 mg/kg/day p.o.
Description: Spontaneously hypertensive male rats [SHR, Jap. Circ. J. 27, 282-93 (1963)] being 18-23 weeks of age and having systolic blood pressure levels of 170-190 mmHg were used. The test compounds were each suspended in a 0.5% aqueous tragacanth solution and administered orally in a dose of 10 mg/kg/day by stomach tube to SHR once a day for 10 successive days. The blood pressure of conscious SHR was measured prior to dosing and 5 hours after administration. It was also measured once daily over a period of 7 days after the end of the treatment period. The measurement of the blood pressure was made by a plethysmographtail method [Jap. Circ. J. 27, 282-93 (1963)].

[3] = well known; cited from earlier work
Male Wistar rats [4] = test: Effect on blood glucose (b), intraperitoneal; conditions: 300 mg/kg i.p.
Description: (b) Male Wistar rats weighing 260-285 g were used. […] 4 ml/kg of the above solution of each test compound was intraperitoneally administered to each animal. The blood samples were taken prior to dosing and 1, 3 and 6 hours after the administration and the plasma glucose levels were determined in a similar manner to that described in (a).

Male Wistar rats [5] = test: Effect on blood glucose (a), oral; conditions: 300 mg/kg p.o.
Description: (a) Male Wistar rats weighing 190-210 g were used. Each test compound was suspended in a concentration of 150 mg/ml in a 0.5% aqueous tragacanth solution and orally administered at a dose of 300 mg/kg by the stomach tube.

Male Wistar rats [6] = test: Effect on urine volume and electrolyte excretion; format: in vivo, rat; conditions: 100 mg/kg p.o.; for Cl- / K+ / Na+ / Na+/K+: urinary excretion over 5 hours
Description: Male Wistar rats weighing 220 to 260 g were used. Each test compound was suspended in a solution of tragacanth dissolved in a concentration of 0.5% in a 0.9% saline solution so that the volume of the resulting suspension to be administered would be always 25 ml/Kg. The test compounds were administered orally by the stomach tube to the animals at the prescribed doses. The animals were then placed in a metabolic cage and the urine was collected over a period of 5 hours. The total amount of sodium, potassium and chloride excreted was determined by Auto-Analyzer, made by Technicon Instruments Corporation.

[7] = Toxicity (LD50), JCL-ICR mice; conditions: mouse, in vivo
Source text: (§1) Male and female JCL-ICR strain mice, weighing 20-30 g (each group: 8 mice), and male and female JCL-SD strain rats, weighing 150-250 g (each group: 8 rats) were used.

[8] = Toxicity (LD50), JCL-SD rats; conditions: rat, in vivo
Source text: as §1

[9] = test system: Spontaneously hypertensive rats; test: Glucose tolerance test; conditions: 300 mg/kg p.o. once a day, 22 days; 1.25 g/kg oral glucose
Description: Spontaneously hypertensive rats weighing 360 to 400 g were used. Each of the test compounds was suspended in a 0.5% aqueous tragacanth solution, and orally administered to the animals at a dose of 300 mg/kg once a day for 22 consecutive days. The control group was given only the 0.5% aqueous tragacanth solution. After the final administration, the animals were caused to fast for 20 hours, and subjected to a glucose tolerance test by an oral application of 1.25 g/kg of glucose.

[10] = day 0, 5 hours after administration
[11] = day 2, 5 hours after administration
[12] = day 4, 5 hours after administration
[13] = day 6, 5 hours after administration
[14] = day 8, 5 hours after administration
[15] = day 10, 24 hours after the final treatment
[16] = day 14, 120 hours after the final treatment
[17] = iv, female, dissolved with stoichiometric NaOH, 95% confidence limits in parentheses
[18] = iv, male, dissolved with stoichiometric NaOH, 95% confidence limits in parentheses
[19] = po, female, suspended in 0.5% tragacanth
[20] = po, male, suspended in 0.5% tragacanth
[21] = sc, female, dissolved with stoichiometric NaOH
[22] = sc, male, dissolved with stoichiometric NaOH

For `CC1=Nc2ccc(Cl)cc2S(=O)(=O)N1` [Compound 3, 7-chloro-3-methyl-2H-1,2,4-benzothiadiazine 1,1-dioxide], the Diuretic action ([1]; known) is listed as “no diuretic action”, the Antidiuretic activity ([1]; literature) is listed as “antidiuretic effects (i.e., sodium and water retaining effect)” and the Blood pressure [2, 10] is listed as 155 mm Hg. The Blood pressure ([2]; day 0, prior to dosing (0)) was 173 mm Hg, the Blood pressure [2, 11] was 146 mm Hg and the Blood pressure ([2]; day 2, prior to dosing (0)) was 166 mm Hg. For the same molecule, the Blood pressure [2, 12] was 151 mm Hg, the Blood pressure ([2]; day 4, prior to dosing (0)) was 159 mm Hg and the Blood pressure [2, 13] was 143 mm Hg. The Blood pressure ([2]; day 6, prior to dosing (0)) was 150 mm Hg, the Blood pressure [2, 14] was 137 mm Hg and the Blood pressure ([2]; day 8, prior to dosing (0)) was 153 mm Hg. For the same molecule, the Blood pressure [2, 15] was 144 mm Hg, the Blood pressure [2, 16] was 175 mm Hg and the Hyperglycemic effects [3] was “marked hyperglycemic effects”. For the same molecule, the Blood glucose (Male Wistar rats [4]; 0 hr (prior to dosing)) was 100 mg/dL, the Blood glucose (Male Wistar rats [4]; 1 hr) was 361 mg/dL and the Blood glucose (Male Wistar rats [4]; 3 hr) was 599 mg/dL. It also gave a Blood glucose (Male Wistar rats [4]; 6 hr) of 675 mg/dL, a Blood glucose (Male Wistar rats [5]; 0 hr (prior to dosing)) of 111 mg/dL and a Blood glucose (Male Wistar rats [5]; 1 hr) of 126 mg/dL. For the same molecule, the Blood glucose (Male Wistar rats [5]; 3 hr) was 125 mg/dL, the Blood glucose (Male Wistar rats [5]; 6 hr) was 146 mg/dL and the Blood glucose (Male Wistar rats [5]; 10 hr) was 148 mg/dL. The Cl- (Male Wistar rats [6]) was 0.20 mEq, the “K+” value (Male Wistar rats [6]) was 0.37 mEq and the “Na+” value (Male Wistar rats [6]) was 0.17 mEq. For the same molecule, the “Na+/K+” value (Male Wistar rats [6]) was 0.51.
`CN1CCN(C2=Nc3ccc(Cl)cc3S(=O)(=O)N2)CC1` [Compound A, 7-chloro-3-(4-methyl-1-piperazinyl)-2H-1,2,4-benzothiadiazine 1,1-dioxide] gave an LD50 at 168 h [7, 17] of 242 mg/kg, an LD50 at 168 h [7, 18] of 267 mg/kg and an LD50 at 168 h [7, 19] of over 5000 mg/kg. For the same molecule, the LD50 at 168 h [7, 20] was over 5000 mg/kg, the LD50 at 168 h [7, 21] was over 2410 mg/kg and the LD50 at 168 h [7, 22] was over 2410 mg/kg. For the same molecule, the Blood pressure [2, 10] was 172 mm Hg, the Blood pressure ([2]; day 0, prior to dosing (0)) was 172 mm Hg and the Blood pressure [2, 11] was 155 mm Hg. For the same molecule, the Blood pressure ([2]; day 2, prior to dosing (0)) was 167 mm Hg, the Blood pressure [2, 12] was 151 mm Hg and the Blood pressure ([2]; day 4, prior to dosing (0)) was 158 mm Hg. It also gave a Blood pressure [2, 13] of 131 mm Hg, a Blood pressure ([2]; day 6, prior to dosing (0)) of 144 mm Hg and a Blood pressure [2, 14] of 135 mm Hg. It also gave a Blood pressure ([2]; day 8, prior to dosing (0)) of 143 mm Hg, a Blood pressure [2, 15] of 139 mm Hg and a Blood pressure [2, 16] of 165 mm Hg. It also gave an LD50 at 168 h [8, 17] of 740 mg/kg, an LD50 at 168 h [8, 18] of 551 mg/kg and an LD50 at 168 h [8, 19] of over 5000 mg/kg. It also gave an LD50 at 168 h [8, 20] of over 5000 mg/kg, an LD50 at 168 h [8, 21] of over 1000 mg/kg and an LD50 at 168 h [8, 22] of over 1000 mg/kg. It also gave a Blood glucose (Male Wistar rats [4]; 0 hr (prior to dosing)) of 94 mg/dL, a Blood glucose (Male Wistar rats [4]; 1 hr) of 102 mg/dL and a Blood glucose (Male Wistar rats [4]; 3 hr) of 103 mg/dL. For the same molecule, the Blood glucose (Male Wistar rats [4]; 6 hr) was 111 mg/dL, the “Effect on blood glucose level” value (Male Wistar rats [4]; rats) was “substantially no effect” and the Blood glucose (Male Wistar rats [5]; 0 hr (prior to dosing)) was 105 mg/dL. For the same molecule, the Blood glucose (Male Wistar rats [5]; 1 hr) was 105 mg/dL, the Blood glucose (Male Wistar rats [5]; 3 hr) was 107 mg/dL and the Blood glucose (Male Wistar rats [5]; 6 hr) was 103 mg/dL. For the same molecule, the Blood glucose (Male Wistar rats [5]; 10 hr) was 110 mg/dL, the “Effect on blood glucose level” value (Male Wistar rats [5]; rats) was “substantially no effect” and the “Change in Na+/K+” value (Male Wistar rats [6]) was “some increase”. The “Change in electrolyte excretion” value (Male Wistar rats [6]) was “no significant change”, the “Change in urine volume” value (Male Wistar rats [6]) was “no significant change” and the Urine volume (Male Wistar rats [6]; 5 hours) was 3.58 mL. The Cl- (Male Wistar rats [6]) was 0.90 mEq, the “K+” value (Male Wistar rats [6]) was 0.40 mEq and the “Na+” value (Male Wistar rats [6]) was 0.78 mEq. For the same molecule, the “Na+/K+” value (Male Wistar rats [6]) was 1.93, the “Blood glucose levels after application of glucose, compared with control group” value [9] was “same glucose tolerance pattern as the control group” and the Glucose tolerance [9] was “no abnormality was observed in glucose tolerance”.
